One may read the Km as the concentration of substrate that gives half-maximal velocity.

We go through three compounds from US7521432B2, “Compositions and methods for identifying agents which regulate chromosomal stability, gene activation and aging” (priority 2000, dated 2009).

The target of one assay is T1, SIR2 family of enzymes (Saccharomyces cerevisiae, UniProt P53686).
T1 construct: Histidine tagged full length HST2 was recombinantly expressed and purified from Escherichia coli BL21DE3 bacteria; Histidine tag; made in house; host or cells: Escherichia coli BL21DE3
Briefly: HST2 steady-state reactions with NGD as alternative substrate to NAD. Format: biochemical. The text has this:
The details of the reaction conditions are as described in the materials and methods section. This enzymatic process may be used to advantage to generate novel O-acetyl-nucleotide analogs. These analogs may be used in the development of inhibitors for SIR2 and SIR homologs, or for the proteins/enzymes that normally bind/utilize O-acetyl-ADP ribose. More importantly, these enzyme-derived nucleotide analogs may serve as potent therapeutics for cancer and aging, releasing the block for transcriptionally-silenced genes that have been inappropriately silenced during tumorigenesis and aging, as discussed earlier.
Typical HST2 steady-state reactions to monitor deacetylation of AcLys-14 H3 peptide or nicotinamide formation with nicotinamide guanine dinucleotide (NGD) as an alternative substrate to NAD were carried out at various concentrations of AcLys-14 H3 peptide (5-100 μM) and NGD (10-400 μM). During the linear portion of the initial velocity, the reactions were monitored by reverse phase HPLC analysis on a Beckman Ultrasphere column (4.6 mm×15 cm). Samples were injected in 0.05% trifluoroacetic acid (TFA)/H2O for 1 min before a linear gradient of 0-40% acetontrile in 1-41 min.

The test system of assay [1] is poly(ADP-ribosyl)transferases and SIR2 enzymes. As to conditions: poly(ADP-ribosyl)transferases and SIR2 enzymes exhibit similar values; read-out: Km values for NAD^+; cited from earlier work.
Assay [2] concerns the target T2, HST2 (Saccharomyces cerevisiae, UniProt P53686). Briefly: HST2 steady-state deacetylation reactions, substrate saturation curves (HPLC). Format: biochemical, yeast. The text has this:
Materials. [^3H]Acetyl-CoA (1.88 Ci/mmol) and Na-[^3H]-acetate (100,000 cpm/nmol) was from NEN Life Sciences Products. Nicotinamide, ADP-ribose, and nicotinamide adenine dinucleotide (NAD) were purchased from Sigma Chemical Company. Histone H3 peptide, […] and the Lysine 14 acetylated H3 peptide (AcLys-14), corresponding to the 20 amino-terminal residues of human histone H3 was synthesized by the Protein Chemistry Core Lab at Baylor College of Medicine. Histidine tagged full length HST2 was recombinantly expressed and purified from Escherichia coli BL21DE3 bacteria using a T7 polymerase-based expression. […] HST2 eluted at 200 mM imidazole and was determined to be >95% pure by scanning densitometry of commassie-stained SDS-PAGE. […] The peaks of absorbance at 214/260 nm were collected and subjected to mass spectral analysis. [^3H]-acetate was detected by liquid scintillation counting. […]
Typical HST2 steady-state reactions to monitor deacetylation of AcLys-14 H3 peptide or nicotinamide formation were carried out at 37° C. in 50 mM Tris, pH 7.5 buffer. Rates of product formation were determined at various concentrations of AcLys-14 H3 peptide (5-300 μM) and NAD^+ (5-600 μM). During the linear portion of the initial velocity, the reactions were quenched with TFA to 1% and product formation was monitored by the HPLC analysis described above. […]

Assay [3] has as its target T2, HST2. Briefly: Rapid-reaction single turnover quench-flow analysis. The assay is classed as biochemical, yeast. The following applies: HST2, excess NAD^+, sub-stoichiometric [^3H]-AcLys14 H3, 22±3° C., pH 7.5, single exponential fit. The text has this: FIGS. 5A-5C are a series of graphs showing that acetate is not a primary product of HST2-catalyzed histone/protein deacetylation. H3 peptide was stoichiometrically acetylated on Lys-14 by the histone acetyltransferase P/CAF and using [^3H]-AcCoA. Monoacetylated [^3H]-AcLys-14 H3 peptide was then purified by HPLC (FIG. 5A) and utilized as a substrate in the HST2 deacetylation reactions (FIG. 5B). Upon complete consumption of [^3H]-AcLys-14 H3 by HST2, all of the original [^3H] from H3 peptide was converted to a labeled product that eluted much later than authentic acetate. Conditions: 375 nM HST2, 175 μM NAD^+, 5 μM [^3H]-Lys14 AcH3, 1 mM DTT, for 1 min at 37° C. prior to quenching with TFA to a final concentration of 1%. FIG. 5C: Single turnover rapid quench-flow analysis. […] Quantification of [^3H]-AcLys14 H3 peptide (diamonds) and the [^3H]-acetate-adduct (circles) was accomplished by liquid scintillation counting of these species separated using reverse phase HPLC. […]
P/CAF [^3H]-monoacetylation of H3 peptide. […] Every mass spectrum was recorded as the sum of 20 consecutive spectra, each produced by a single pulse of photons. […] The amount of [^3H]-AcLys14 H3 peptide and [^3H]-O-acetyl ADP ribose was determined by liquid scintillation counting of these species separated on reverse phase HPLC. […]

Where two headings read alike, the source gives them in different places. Bounds are passed on as bounds.

T2 sequence (P53686 whole entry): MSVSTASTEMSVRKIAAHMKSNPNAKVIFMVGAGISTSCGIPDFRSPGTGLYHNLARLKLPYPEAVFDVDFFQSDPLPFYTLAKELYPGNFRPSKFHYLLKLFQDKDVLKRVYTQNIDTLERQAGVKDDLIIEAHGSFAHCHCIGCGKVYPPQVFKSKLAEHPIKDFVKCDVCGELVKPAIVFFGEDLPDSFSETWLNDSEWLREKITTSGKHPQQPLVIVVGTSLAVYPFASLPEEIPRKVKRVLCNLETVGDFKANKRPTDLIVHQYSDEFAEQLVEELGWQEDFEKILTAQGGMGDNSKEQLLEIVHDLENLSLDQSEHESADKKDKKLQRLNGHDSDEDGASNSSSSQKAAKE
T1 sequence (P53686 whole entry): as above

On to `NC(=O)c1ccc[n+]([C@@H]2O[C@H](COP(=O)([O-])OP(=O)(O)OC[C@H]3O[C@@H](n4cnc5c(=O)[nH]c(N)nc54)[C@H](O)[C@@H]3O)[C@@H](O)[C@H]2O)c1` [NGD, nicotinamide guanine dinucleotide], for which the “ability to serve as substrate, generating O-acetyl-NDP ribose product” value at SIR2 family of enzymes was “can serve as substrates for the SIR2 family of enzymes”.
`NC(=O)c1ccc[n+]([C@@H]2O[C@H](COP(=O)([O-])OP(=O)(O)OC[C@H]3O[C@@H](n4cnc5c(N)ncnc54)[C@H](O)[C@@H]3O)[C@@H](O)[C@H]2O)c1` [NAD^+, nicotinamide adenine dinucleotide]: the Km in assay [1] was 50 to 70 µM; at HST2 [2] (37° C., 50 mM Tris pH 7.5, read-out: Km for NAD^+), 70 µM.
In the case of “ARTKQTARKSTGG(AcK)APRKQL [AcLys-14 H3, reference compound]”, the “rate constant of AcLys-14 H3 peptide deacetylation (substrate consumption)” value on HST2 [3] stood at 2.0 ± 0.1 s⁻¹. Besides, the Km on HST2 [2] (estimated, read-out: Km for AcLys-14 H3) was below 0.5 µM.
